Results: PubChem BioAssay (NCI)
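Method: 48-hour compound exposure of cells in 96-well plates, five concentrations, linear interpolation of endpoints. TGI is the concentration that stops growth completely.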

Legend:
Assay in all cases: NCI anticancer screen, dose series, 48 h
HOP-62 NSCLC = tested on: HOP-62 NSCLC
COLO 205 colon = tested on: COLO 205 colon
SK-OV-3 ovarian = tested on: SK-OV-3 ovarian
SK-MEL-5 melanoma = tested on: SK-MEL-5 melanoma
HT29 colon = tested on: HT29 colon
KM12 colon = tested on: KM12 colon
SR leukemia = tested on: SR leukemia
DU-145 prostate = tested on: DU-145 prostate
UACC-257 melanoma = tested on: UACC-257 melanoma
NCI-H460 lung = tested on: NCI-H460 lung
HS 578T breast = tested on: HS 578T breast
HOP-92 NSCLC = tested on: HOP-92 NSCLC
MALME-3M melanoma = tested on: MALME-3M melanoma
MDA-N = tested on: MDA-N

Compound | TGI (HOP-62 NSCLC) | TGI (COLO 205 colon) | TGI (SK-OV-3 ovarian) | TGI (SK-MEL-5 melanoma) | TGI (HT29 colon) | TGI (KM12 colon) | TGI (SR leukemia) | TGI (DU-145 prostate) | TGI (UACC-257 melanoma) | TGI (NCI-H460 lung) | TGI (HS 578T breast) | TGI (HOP-92 NSCLC) | TGI (MALME-3M melanoma) | TGI (MDA-N)
CC(=O)c1cn(-c2ccc(Cl)cc2)c(=O)c2c(N)n[nH]c12 | > 100 µM | > 100 µM | > 100 µM | > 100 µM | > 100 µM | > 100 µM | > 100 µM | > 100 µM | > 100 µM | > 100 µM | > 100 µM | – | – | –
CC1OC(=O)c2ccccc2NC1=O (configuration not stated) | > 100 µM | > 100 µM | > 100 µM | > 100 µM | > 100 µM | > 100 µM | > 100 µM | > 100 µM | > 100 µM | > 100 µM | > 100 µM | > 100 µM | > 100 µM | –
Cc1n[nH]c(=O)n1N=C(c1ccccc1)c1ccccc1 | > 100 µM | > 100 µM | – | > 100 µM | > 100 µM | > 100 µM | – | > 100 µM | > 100 µM | > 100 µM | > 100 µM | > 100 µM | > 100 µM | > 100 µM
CC(=O)OC[C@@]12C[C@H]3C(=O)C(C)(C)C[C@H]3[C@]1(C)[C@@H](OC(C)=O)[C@]1(O)[C@H]([C@@H](OC(=O)c3ccccc3)[C@@H](C)[C@H]1OC(C)=O)[C@H]2OC(C)=O | > 20 µM | > 20 µM | > 20 µM | > 20 µM | – | > 20 µM | > 20 µM | > 20 µM | > 20 µM | > 20 µM | > 20 µM | > 20 µM | – | > 20 µM
CN1CCN(c2ccc3[nH]c(C4=C(O)c5nc(CO)n(C)c5C(=O)C4=O)nc3n2)CC1 | > 100 µM | > 100 µM | > 100 µM | – | > 100 µM | > 100 µM | – | > 100 µM | > 100 µM | > 100 µM | > 100 µM | > 100 µM | > 100 µM | –
C=C1C(=O)OC2/C=C(\C)C(O)/C=C\C(C)(O)CC(OC(=O)/C(C)=C/C)C12 (configuration not stated) | > 100 µM | 28.9 µM | > 100 µM | > 100 µM | > 100 µM | > 100 µM | 55.7 µM | – | > 77.1 µM | > 100 µM | – | 77.5 µM | 40.4 µM | –
Cc1nc(-c2nc([N+](=O)[O-])c([N+](=O)[O-])[nH]2)cs1 | > 100 µM | > 100 µM | > 100 µM | > 100 µM | > 100 µM | > 100 µM | > 100 µM | – | > 100 µM | > 100 µM | – | > 100 µM | > 100 µM | –
CSC(=NCCN=C(NS(=O)(=O)c1ccc(Cl)cc1)SC)NS(=O)(=O)c1ccc(Cl)cc1 | 87.8 µM | > 100 µM | 59.1 µM | – | > 100 µM | – | > 100 µM | > 100 µM | > 100 µM | > 100 µM | – | 58 µM | > 100 µM | > 100 µM
N#Cc1c(C#N)c(SSc2c(C#N)c(C#N)c(N)n2-c2ccccc2)n(-c2ccccc2)c1N | > 69.1 µM | 3.82 µM | 37.5 µM | 31.9 µM | > 59.1 µM | > 63.3 µM | – | 39 µM | > 69.8 µM | > 89.3 µM | 55.2 µM | 3.71 µM | 3.26 µM | > 56.7 µM
COC(=O)C1=C(O)C(C(=O)OC)[C@]2(O)[C@H](C(=O)OC)[C@H]1C[C@@H](c1ccc(OC)cc1)[C@H]2C(=O)OC (some centres not stated) | 85.1 µM | > 100 µM | 65.5 µM | 55.8 µM | 97.7 µM | 41.3 µM | 86.1 µM | – | > 100 µM | 50 µM | > 100 µM | > 100 µM | > 100 µM | 40.7 µM
CC1(C)CCc2c(c(N=Nc3ccccc3)c3ccccc3c2O)O1 | > 100 µM | > 100 µM | 50.3 µM | > 100 µM | 34 µM | > 100 µM | – | 83 µM | 39.8 µM | 53.3 µM | > 100 µM | 63.9 µM | > 100 µM | 41.7 µM
Cc1ccc(/C=N/Nc2ncccn2)s1 | > 100 µM | > 100 µM | > 100 µM | > 100 µM | > 100 µM | > 100 µM | – | – | > 100 µM | – | > 100 µM | > 100 µM | > 100 µM | > 100 µM
S=C1C=C(c2ccccc2)Sc2ccccc2N1 | > 100 µM | > 100 µM | > 100 µM | > 100 µM | > 100 µM | > 100 µM | > 100 µM | > 100 µM | > 100 µM | > 100 µM | > 100 µM | – | > 100 µM | > 100 µM
COc1ccc2c(c1)c1cc(OC)ccc1n2CCCCOc1ccc(-c2c3ccccc3c(-c3ccc(OCCCCn4c5ccc(OC)cc5c5cc(OC)ccc54)cc3)c3ccccc23)cc1 | > 100 µM | > 100 µM | > 100 µM | – | – | > 100 µM | – | – | – | – | – | > 100 µM | > 100 µM | –
CC(C)[Si]1(C(C)C)OCC2OC(n3ccc(=O)[nH]c3=O)C(O)(CO)C2O[Si](C(C)C)(C(C)C)O1 (configuration not stated) | 33.8 µM | 31.7 µM | 30.2 µM | 28.4 µM | 28.7 µM | 31 µM | 30 µM | 32.4 µM | 28.7 µM | – | 11.4 µM | 22.6 µM | 28.4 µM | –
Fc1ccc(C(OCCN2CCC3CCC(C2)N3Cc2cc3ccccc3[nH]2)c2ccc(F)cc2)cc1 (configuration not stated) | 4.54 µM | 2.14 µM | 5.69 µM | 3.11 µM | 2.49 µM | 3.72 µM | – | 3.59 µM | 3.53 µM | 3.67 µM | 4 µM | 3.62 µM | 2.96 µM | 3.1 µM
CC12ON=C(c3ccccc3)N1C=CN1C(c3ccccc3)=NOC12 (configuration not stated) | > 100 µM | > 100 µM | > 100 µM | > 100 µM | – | > 100 µM | – | > 100 µM | > 100 µM | > 100 µM | > 100 µM | – | > 100 µM | > 100 µM
COCN1C(=O)[C@@H]2CCCN2C(=O)c2cc([N+](=O)[O-])ccc21 | > 100 µM | > 100 µM | > 100 µM | > 100 µM | > 100 µM | > 100 µM | – | > 100 µM | > 100 µM | – | > 100 µM | – | > 100 µM | –
